Test results reported in publication PMC6024615, “Effect of Biliary Drainage on the Toxicity and Toxicokinetics of Amanita exitialis in Beagles” (Toxins, 2018).
*1 amine or outer side, *2 acyl side, *3 side chain or, on linkers, in order; H or OH if unused. Where a SMILES comes first, the peptide text is derived from it. Bridges are numbered along the chain shown (N, C = ends). [ ]: non-standard residue; d: D form. Trp(2-yl) = O=C([C@H](Cc1c([*:3])[nH]c2ccccc12)N[*:1])[*:2]; Leu(4R-OH,5-OH) = C[C@](O)(CO)C[C@H](N)C(=O)O; dAsp(3S-OH) = N[C@@H](C(=O)O)[C@H](O)C(=O)O; cisHyp = O=C(O)[C@@H]1C[C@H](O)CN1

How the values were obtained:
[1] = Peptide toxins in the urine of beagles with biliary drainage; format: in vivo, beagle dogs; conditions: for Total (accumulated) amount excreted in urine / percentage of total urine excretion, Total: 0–4 days
Experimental: (§1) The study was approved by National Institute of Occupational Health and Poison Control review board for animal experiments. Twenty-four male beagles (age, 8–10 months; weight, 10 ± 1 kg) were obtained from Beijing Institute of Xieerxin Biology Resource (Beijing, China). They were randomly divided into four groups of six animals each: control, biliary drainage, and 20 and 60 mg/kg with biliary drainage groups. The biliary drainage operation was conducted in all groups barring the control group. The dogs were dressed in homemade underwear, coats, and Elizabeth circles for a week to ensure pre-experimental acclimatization (Figure S8a–c). After determining the baseline values for biochemical indicators, the dogs were fasted for 24 h but received water ad libitum. They were anesthetized by intravenous administration of pentobarbital sodium (3%, 1 mL/kg) during the surgery. A temperature of 38–39 °C was maintained with a warming mat. After skin preservation and sterilization, the abdominal cavity was opened through the central abdomen. The abdomen was explored and blunt dissection of the common bile duct was performed (Figure S8d). The common bile duct and its branches were ligated from the intestinal side. A 7.0-Fr drainage catheter (COOK, Bloomington, IN, USA) was percutaneously inserted into the gallbladder, and a medical drainage bag was connected to the drainage catheter coming out of the abdominal cavity. Each opened layer, including the peritoneum, abdominal wall muscle, and skin, was closed with suture. The operative incision was protected with sterile gauze and a bandage, and the dogs were dressed in homemade underwear, coats, and Elizabeth circles. The drainage bag was placed in the pocket of the coat (Figure S8e). After the anesthetic wore off, the dogs were placed in cages, and food and water were provided ad libitum. The operative incision was sterilized with iodophor twice a day until stitches were removed six days after surgery. The drainage bag was replaced every day. On the eighth day after surgery, the 20 and 60 mg/kg with biliary drainage groups were orally administered a lyophilized powder of Amanita exitialis in starch capsules. In control and bile drainage group, the beagle dogs were fed with empty capsules. Immediately after dosing, the animals were placed in their cages, and food and water were provided ad libitum. Dogs were sacrificed with an overdose of sodium pentobarbital at the end of the experiment. All procedures were performed according to the ethical standards of the National Institutes of Health Guide for Animal Welfare and approved by the Institutional Animal Care and Use Committee (EAWE-2017-005).
(§2) Peptide toxins in blood and urine samples were analyzed as described previously. Bile samples from Days 0–1, Days 1–2, Days 2–3, and Days 3–4 were collected and stored in medical drainage bags and the bile volume was recorded. Plasma and urine samples were stored at 2–8 °C until analysis for peptide toxins.
(§3) UPLC and MS/MS parameters were as described in our previous study. The limit of detection and limit of quantitation of each toxin in the bile were 0.03 mg/kg and 0.5 mg/kg, respectively.

[2] = Peptide toxins in the blood / toxicokinetics in beagles with biliary drainage; format: in vivo, beagle dogs
Experimental: as §1, §2, §3
Toxicokinetic parameters were described in our previous study. Measurement data are reported as mean ± standard deviation values and enumeration data are reported as percentage (%). […] SPSS 22.0 (IBM Corporation, Armonk, NY, USA, 2015) was used for statistical analysis. The criterion for statistical significance was p ≤ 0.05. Except for the biliary drainage operation, the animals and methods in our present study are in accordance with our previously published study. Thus, by directly comparing the data from this study with those from our published studies on Amanita exitialis-exposed beagles without biliary drainage, we can evaluate the impact of biliary drainage on the toxicity and toxicokinetics of Amanita exitialis in beagles.

[3] = 0–1 days, 60 mg/kg with biliary drainage group
[4] = 20 mg/kg with biliary drainage group
[5] = 60 mg/kg with biliary drainage group
[6] = 1–2 days, 20 mg/kg with biliary drainage group
[7] = 1–2 days, 60 mg/kg with biliary drainage group
[8] = 2–3 days, 20 mg/kg with biliary drainage group
[9] = 2–3 days, 60 mg/kg with biliary drainage group
[10] = 3-4d, 20 mg/kg with biliary drainage group
[11] = 3-4d, 60 mg/kg with biliary drainage group
[12] = 3–4 days, 20 mg/kg with biliary drainage group
[13] = 3–4 days, 60 mg/kg with biliary drainage group
[14] = 60 mg/kg Amanita exitialis oral, biliary drainage, plasma, mean ± SD

SMILES: CC(C)[C@@H]1NC(=O)[C@H](C[C@@](C)(O)CO)NC(=O)[C@@H]2Cc3c([nH]c4ccccc34)SC[C@H](NC(=O)[C@@H]([C@H](O)C(=O)O)NC1=O)C(=O)N1C[C@@H](O)C[C@H]1C(=O)N[C@@H](C)C(=O)N2 [phallacidin] (cyclo(A[Trp(2-yl)][Leu(4R-OH,5-OH)]V[dAsp(3S-OH)]C[cisHyp]); thioether 2-6)
- detection rate of peptide toxins in urine ([1]; 0-1 d, 20 mg/kg with biliary drainage group): 100%
- detection rate of peptide toxins in urine ([1]; 0-1 d, 60 mg/kg with biliary drainage group): 100%
- daily amount excreted in urine ([1]; 0–1 days, 20 mg/kg with biliary drainage group): 0.0012 mg
- percentage of total urine excretion excreted daily ([1]; 0–1 days, 20 mg/kg with biliary drainage group, 20 mg/kg): more than 90%
- percentage of total urine excretion excreted daily ([1]; 0–1 days, 20 mg/kg with biliary drainage group, listed as Phallacidin, 20 mg/kg): 92.2%
- daily amount excreted in urine [1, 3]: 0.0017 mg
- percentage of total urine excretion excreted daily [1, 3]: 70.5%
- Total (accumulated) amount excreted in urine [1, 4]: 0.0014 mg
- percentage of total urine excretion, Total [1, 4]: 100%
- Total (accumulated) amount excreted in urine [1, 5]: 0.0025 mg
- percentage of total urine excretion, Total [1, 5]: 100%
- time within which toxin was detected in urine [1, 4]: two
- time within which toxin was detected in urine [1, 5]: three
- detection rate of peptide toxins in urine ([1]; 1-2 d, 20 mg/kg with biliary drainage group): 83%
- detection rate of peptide toxins in urine ([1]; 1-2 d, 60 mg/kg with biliary drainage group): 100%
- daily amount excreted in urine [1, 6]: 0.0001 mg
- percentage of total urine excretion excreted daily [1, 6]: 7.8%
- daily amount excreted in urine [1, 7]: 0.0005 mg
- percentage of total urine excretion excreted daily [1, 7]: 22.1%
- detection rate of peptide toxins in urine ([1]; 2-3 d, 20 mg/kg with biliary drainage group): 0%
- toxin content in urine ([1]; 2-3d, 20 mg/kg with biliary drainage group, mean ± SD): 0 µg/L
- detection rate of peptide toxins in urine ([1]; 2-3 d, 60 mg/kg with biliary drainage group): 50%
- daily amount excreted in urine [1, 8]: 0(0%) mg
- percentage of total urine excretion excreted daily [1, 8]: 0(0%)
- daily amount excreted in urine [1, 9]: 0.0002 mg
- percentage of total urine excretion excreted daily [1, 9]: 7.5%
- detection rate of peptide toxins in urine [1, 10]: 0%
- toxin content in urine [1, 10]: 0 µg/L
- detection rate of peptide toxins in urine [1, 11]: 0%
- toxin content in urine [1, 11]: 0 µg/L
- daily amount excreted in urine [1, 12]: 0(0%) mg
- percentage of total urine excretion excreted daily [1, 12]: 0(0%)
- daily amount excreted in urine [1, 13]: 0(0%) mg
- percentage of total urine excretion excreted daily [1, 13]: 0(0%)
- share of total urine excretion in the 0–2-day urine ([1]; beagles with biliary drainage, both dose groups): more than 90%
- detection rate of peptide toxins in blood ([2]; 0 h after ingestion, 20 mg/kg with biliary drainage group): 0%
- detection rate of peptide toxins in blood ([2]; 0 h after ingestion, 60 mg/kg with biliary drainage group): 0%
- T1/2 ([2]; 60 mg/kg Amanita exitialis oral, biliary drainage, plasma, UPLC-ESI-MS/MS, mean ± SD): 0.62 ± 0.32 ^b,* h
- AUC (0–∞) [2, 14]: 2.08 ± 2.06 ^b,* µg/L × h
- CL/F [2, 14]: 1.1 ± 0.86 ^b,* L/h/kg
- Cmax [2, 14]: 0.85 ± 0.37 ^b,* µg/L
- Dose normalized AUC (0–∞) [2, 14]: 60.5 ± 60.2 ^b,*
- Dose normalized Cmax [2, 14]: 24.8 ± 10.8 ^b,*
- MRT (0–∞) [2, 14]: 1.95 ± 0.73 ^b,* h
- Tmax [2, 14]: 1.38 ± 0.25 h
- detection rate of peptide toxins in blood ([2]; 0.25 h after ingestion, 20 mg/kg with biliary drainage group): 0%
- detection rate of peptide toxins in blood ([2]; 0.25 h after ingestion, 60 mg/kg with biliary drainage group): 33%
- detection rate of peptide toxins in blood ([2]; 0.5 h after ingestion, 20 mg/kg with biliary drainage group): 0%
- detection rate of peptide toxins in blood ([2]; 0.5 h after ingestion, 60 mg/kg with biliary drainage group): 33%
- detection rate of peptide toxins in blood ([2]; 1 h after ingestion, 20 mg/kg with biliary drainage group): 50%
- detection rate of peptide toxins in blood ([2]; 1 h after ingestion, 60 mg/kg with biliary drainage group): 100%
- detection rate of peptide toxins in blood ([2]; 1.5 h after ingestion, 20 mg/kg with biliary drainage group): 66%
- detection rate of peptide toxins in blood ([2]; 1.5 h after ingestion, 60 mg/kg with biliary drainage group): 100%
- detection rate of peptide toxins in blood ([2]; 2 h after ingestion, 20 mg/kg with biliary drainage group): 33%
- detection rate of peptide toxins in blood ([2]; 2 h after ingestion, 60 mg/kg with biliary drainage group): 100%
- detection rate of peptide toxins in blood ([2]; 3 h after ingestion, 20 mg/kg with biliary drainage group): 33%
- detection rate of peptide toxins in blood ([2]; 3 h after ingestion, 60 mg/kg with biliary drainage group): 50%
- detection rate of peptide toxins in blood ([2]; 4 h after ingestion, 20 mg/kg with biliary drainage group): 17%
- detection rate of peptide toxins in blood ([2]; 4 h after ingestion, 60 mg/kg with biliary drainage group): 50%
- detection rate of peptide toxins in blood ([2]; 5 h after ingestion, 20 mg/kg with biliary drainage group): 0%
- detection rate of peptide toxins in blood ([2]; 5 h after ingestion, 60 mg/kg with biliary drainage group): 33%
- detection rate of peptide toxins in blood ([2]; 6 h after ingestion, 20 mg/kg with biliary drainage group): 0%
- detection rate of peptide toxins in blood ([2]; 6 h after ingestion, 60 mg/kg with biliary drainage group): 17%
- detection rate of peptide toxins in blood ([2]; 8 h after ingestion, 20 mg/kg with biliary drainage group): 0%
- detection rate of peptide toxins in blood ([2]; 8 h after ingestion, 60 mg/kg with biliary drainage group): 0%
- detection rate of peptide toxins in blood ([2]; 10 h after ingestion, 20 mg/kg with biliary drainage group): 0%
- detection rate of peptide toxins in blood ([2]; 10 h after ingestion, 60 mg/kg with biliary drainage group): 0%
- detection rate of peptide toxins in blood ([2]; 12 h after ingestion, 20 mg/kg with biliary drainage group): 0%
- detection rate of peptide toxins in blood ([2]; 12 h after ingestion, 60 mg/kg with biliary drainage group): 0%
- detection rate of peptide toxins in blood ([2]; 24 h after ingestion, 20 mg/kg with biliary drainage group): 0%
- detection rate of peptide toxins in blood ([2]; 24 h after ingestion, 60 mg/kg with biliary drainage group): 0%
- detection rate of peptide toxins in blood ([2]; 36 h after ingestion, 20 mg/kg with biliary drainage group): 0%
- detection rate of peptide toxins in blood ([2]; 36 h after ingestion, 60 mg/kg with biliary drainage group): 0%
- detection rate of peptide toxins in blood ([2]; 48 h after ingestion, 20 mg/kg with biliary drainage group): 0%
- detection rate of peptide toxins in blood ([2]; 48 h after ingestion, 60 mg/kg with biliary drainage group): 0%
- time at which toxins were detected in plasma after ingestion ([2]; beagles with biliary drainage, oral Amanita exitialis): 30 min
- Vd/F ([2]; male, beagle, dog, 60 mg/kg Amanita exitialis oral, biliary drainage, plasma, mean ± SD, read-out: Vz/F): 1.77 ± 0.57 L/kg
